Earlier results on four compounds are cited in paper PMC11975010 (Drug Design, Development and Therapy, 2025).

Read-outs that look alike come from different tables or passages of the source.

For data set [1] the following is noted: poor solubility in water and high permeability.
For data set [2] the following is noted: at 25 °C.
Test in data set [3]: not given
The source holds these as a separate data set.

For data set [4] the following is noted: administered as HP-β-CD complex formulation.

Turning to `COc1ccc(CN=c2[nH]c(N3CCC[C@H]3CO)ncc2C(=O)NCc2ncccn2)cc1Cl` [AVA, Avanafil], the Action duration result is reported as “up to 12 hours”. Also, the “Biopharmaceutical Classification System class” value in data set [1] is “class II”.

Take `CC(O)COC[C@H]1O[C@@H]2O[C@H]3[C@H](O)[C@@H](O)[C@@H](O[C@H]4[C@H](O)[C@@H](O)[C@@H](O[C@H]5[C@H](O)[C@@H](O)[C@@H](O[C@H]6[C@H](O)[C@@H](O)[C@@H](O[C@H]7[C@H](O)[C@@H](O)[C@@H](O[C@H]8[C@H](O)[C@@H](O)[C@@H](O[C@H]1[C@H](O)[C@H]2O)O[C@@H]8COCC(C)O)O[C@@H]7COCC(C)O)O[C@@H]6COCC(C)O)O[C@@H]5COCC(C)O)O[C@@H]4COCC(C)O)O[C@@H]3COCC(C)O` (stereo partly drawn) [HP-β-CD, hydroxypropyl-beta-cyclodextrin]: the Aqueous solubility entry in data set [2] is reported as “approximately 600 mg/mL”.

On to `CC[C@@]1(O)C(=O)OCc2c1cc1n(c2=O)Cc2cc3ccccc3nc2-1` [camptothecin], for which the Lactone ring hydrolysis is 40% in data set [3] (before stabilization in HP-β-CD) and 6.7% in data set [3] (stabilized in HP-β-CD cavities).

Take `C[C@@H]1C[C@H]2[C@@H]3CCC4=CC(=O)C=C[C@]4(C)[C@@]3(F)[C@@H](O)C[C@]2(C)[C@@]1(O)C(=O)CO` [dexamethasone]: in data set [4], the Clearance entry is listed as “lower clearance”.
